Source: US11142527B2, “Dihydropyrimidine compounds and uses thereof in medicine” (SUNSHINE LAKE PHARMA CO., LTD., priority 2017, dated 2021)

What was measured:
[1] = Cytotoxicity test with CellTiter Glo; assay type: cell-based; conditions: human, HepG2.2.15 cells, highest concentration 150 μM, read-out: CC50 values of the compounds of the invention
Experimental: Test 2: Cytotoxicity and Selectivity Index
Methods of Testing Cytotoxicity and Selectivity Index
The serial diluted compound was added to a 384 wells plate at 50 μL HepG2.2.15 cell per well (3000 cells per well), the highest final concentration in the experiment is 150 μM (200 fold dilution). The plate was cultured at 37° C. in an incubator with CO2 for 4 days, and cytotoxicity of the compound was detected using CellTiter Glo agent.
The cytotoxicity of the compound was calculated using the following formulate, cytotoxicity (%)=100−(detection value/mean of DMSO control wells values×100) CC50 values were calculated by a four parametric nonlinear regression model using Graphpad Prism 5 software to manage concentration−cytotoxicity (%).

[2] = tested on: HBV; test: Test of anti HBV activity in vitro (viral DNA by qPCR); assay type: cell-based; conditions: Hepatitis B virus; HepG2.2.15 cells, viral DNA in cell culture supernatant by qPCR; read-out: EC50 values of the compound of the invention on viral replication
How it was run: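 HepG2.2.15 cells (integrated HBV genome) were grown to confluence, then treated with compound in 4-fold dilutions from 4 μM final (0.5% DMSO). Secreted viral DNA in supernatant was quantified by SYBR qPCR against an HBV plasmid standard curve; EC50 from four-parameter nonlinear regression of concentration versus copy number.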

Row | SMILES | CC50 at 4 days [1] [nM] | EC50 [2] [nM]
1 | COC(=O)C1=C(CN2CCN3C(=O)N(CC#Cc4ccc(C(=O)N(C)C)cc4)C[C@@H]3C2)NC(c2nccs2)=N[C@H]1c1ccc(F)cc1Cl [Example 42, (R)-methyl 4-(2-chloro-4-fluorophenyl)-6-(((S)-2-(3-(4-(dimethylcarbamoyl)phenyl)prop-2-yn-1-yl)-3-oxohexahydroimidazo[1,5-a]pyrazin-7(1H)-yl)methyl)-2-(thiazol-2-yl)-1,4-dihydropyrimidine-5-carboxylate] | > 150000 | 8
2 | COC(=O)C1=C(CN2CCN3C(=O)N(CC#Cc4ccc(S(=O)(=O)N(C)C)cc4)C[C@@H]3C2)NC(c2nccs2)=N[C@H]1c1ccc(F)cc1Cl [Example 43, (R)-methyl 4-(2-chloro-4-fluorophenyl)-6-(((S)-2-(3-(4-(N,N-dimethylaminosulfonyl)phenyl)prop-2-yn-1-yl)-3-oxohexahydroimidazo[1,5-a]pyrazin-7(1H)-yl)methyl)-2-(thiazol-2-yl)-1,4-dihydropyrimidine-5-carboxylate] | > 150000 | 7.2
3 | COC(=O)C1=C(CN2CCN3C(=O)N(CC#Cc4ccc(C#N)cc4)C[C@@H]3C2)NC(c2nccs2)=N[C@H]1c1ccc(F)cc1Cl [Example 44, (R)-methyl 4-(2-chloro-4-fluorophenyl)-6-(((S)-2-(3-(4-cyanophenyl)prop-2-yn-1-yl)-3-oxohexahydroimidazo[1,5-a]pyrazin-7(1H)-yl)methyl)-2-(thiazol-2-yl)-1,4-dihydropyrimidine-5-carboxylate] | > 150000 | 3.6
4 | COC(=O)C1=C(CN2CCN3C(=O)N(CC#Cc4c(C)cc(C#N)cc4C)C[C@@H]3C2)NC(c2nccs2)=N[C@H]1c1ccc(F)cc1Cl [Example 48, (R)-methyl 4-(2-chloro-4-fluorophenyl)-6-(((S)-2-(3-(4-cyano-2,6-dimethylphenyl)-2-propynyl)-3-oxohexahydroimidazo[1,5-a]pyrazin-7(1H)-yl)methyl)-2-me (thiazol-2-yl)-1,4-dihydropyrimidine-5-carboxylate] | > 150000 | 6.3
5 | COC(=O)C1=C(CN2CCN3C(=O)N(CCC#Cc4ccc(C(=O)O)cc4)C[C@@H]3C2)NC(c2nccs2)=N[C@H]1c1ccc(F)cc1Cl [Example 54, 4-(4-((S)-7-(((R)-6-(2-chloro-4-fluorophenyl)-5-(methoxycarbonyl)-2-(thiazol-2-yl)-3,6-dihydropyrimidin-4-yl)methyl)-3-oxohexahydroimidazo[1,5-a]pyrazin-2(3H)-yl)but-1-yn-1-yl)benzoic acid] | > 150000 | 61.3
6 | COC(=O)C1=C(CN2CCN3C(=O)N(c4ccc(Oc5ccc(C(=O)N6CCOCC6)cc5)cc4)C[C@@H]3C2)NC(c2nccs2)=N[C@H]1c1ccc(F)cc1Cl [Example 56, (R)-methyl 4-(2-chloro-4-fluorophenyl)-6-(((S)-2-(4-(4-(morpholine-4-carbonyl)phenoxy)phenyl)-3-oxohexahydroimidazo[1,5-a]pyrazin-7(1H)-yl)methyl)-2-(thiazol-2-yl)-1,4-dihydropyrimidine-5-carboxylate] | > 150000 | 12.4
7 | COC(=O)C1=C(CN2CCN3C(=O)N(c4ccc(Oc5ccc(C(=O)N6CCCC6(F)F)cc5)cc4)C[C@@H]3C2)NC(c2nccs2)=N[C@H]1c1ccc(F)cc1Cl [Example 57, (R)-methyl 4-(2-chloro-4-fluorophenyl)-6-(((S)-2-(4-(4-(2,2-difluoropyrrolidine-1-carbonyl)phenoxy)phenyl)-3-oxohexahydroimidazo[1,5-a]pyrazin-7(1H)-yl)methyl)-2-(thiazol-2-yl)-1,4-dihydropyrimidine-5-carboxylate] | > 150000 | 28.1
8 | COC(=O)C1=C(CN2CCN3C(=O)N(c4ccc(Oc5ccc(C(=O)N6CCC(CO)CC6)cc5)cc4)C[C@@H]3C2)NC(c2nccs2)=N[C@H]1c1ccc(F)cc1Cl [Example 60, (R)-methyl 4-(2-chloro-4-fluorophenyl)-6-(((S)-2-(4-(4-(4-(hydroxymethyl)piperidine-1-carbonyl)phenoxy)phenyl)-3-oxohexahydroimidazo[1,5-a]pyrazin-7(1H)-yl)methyl)-2-(thiazol-2-yl)-1,4-dihydropyrimidine-5-carboxylate] | > 150000 | 32.3
9 | COC(=O)C1=C(CN2CCN3C(=O)N(c4ccc(Oc5ccc(C(=O)N6CC(O)C6)cc5)cc4)C[C@@H]3C2)NC(c2nccs2)=N[C@H]1c1ccc(F)cc1Cl [Example 61, (R)-methyl 4-(2-chloro-4-fluorophenyl)-6-(((S)-2-(4-(4-(3-hydroxyazetidine-1-carbonyl)phenoxy)phenyl)-3-oxohexahydroimidazo[1,5-a]pyrazin-7(1H)-yl)methyl)-2-(thiazol-2-yl)-1,4-dihydropyrimidine-5-carboxylate] | > 150000 | 15
10 | COC(=O)C1=C(CN2CCN3C(=O)N(c4ccc(Oc5ccc(C(=O)N(CCO)Cc6ccccc6)cc5)cc4)C[C@@H]3C2)NC(c2nccs2)=N[C@H]1c1ccc(F)cc1Cl [Example 63, (R)-methyl 6-(((S)-2-(4-(4-(benzyl(2-hydroxyethyl)carbamoyl)phenoxy)phenyl)-3-oxohexahydroimidazo[1,5-a]pyrazin-7(1H)-yl)methyl)-4-(2-chloro-4-fluorophenyl)-2-(thiazol-2-yl)-1,4-dihydropyrimidine-5-carboxylate] | > 150000 | 27.6
11 | COC(=O)C1=C(CN2CCN3C(=O)N(c4ccc(Oc5ccc(C(=O)N(CCO)CCO)cc5)cc4)C[C@@H]3C2)NC(c2nccs2)=N[C@H]1c1ccc(F)cc1Cl [Example 64, (R)-methyl 6-(((S)-2-(4-(4-(bis(2-hydroxyethyl)carbamoyl)phenoxy)phenyl)-3-oxohexahydroimidazo[1,5-a]pyrazin-7(1H)-yl)methyl)-4-(2-chloro-4-fluorophenyl)-2-(thiazol-2-yl)-1,4-dihydropyrimidine-5-carboxylate] | > 150000 | 24.9
12 | COC(=O)C1=C(CN2CCN3C(=O)N(c4ccc(Oc5ccc(C(=O)NC(C)(C)CO)cc5)cc4)C[C@@H]3C2)NC(c2nccs2)=N[C@H]1c1ccc(F)cc1Cl [Example 68, (R)-methyl 4-(2-chloro-4-fluorophenyl)-6-(((S)-2-(4-(4-((1-hydroxy-2-methylprop-2-yl)carbamoyl)phenoxy)phenyl)-3-oxohexahydroimidazo[1,5-a]pyrazin-7(1H)-yl)methyl)-2-(thiazol-2-yl)-1,4-dihydropyrimidine-5-carboxylate] | > 150000 | 11.1
13 | COCC(C)(C)NC(=O)c1ccc(Oc2ccc(N3C[C@@H]4CN(CC5=C(C(=O)OC)[C@H](c6ccc(F)cc6Cl)N=C(c6nccs6)N5)CCN4C3=O)cc2)cc1 [Example 70, (R)-methyl 4-(2-chloro-4-fluorophenyl)-6-(((S)-2-(4-(4-((1-methoxy-2-methylprop-2-yl)carbamoyl)phenoxy)phenyl)-3-oxohexahydroimidazo[1,5-a]pyrazin-7(1H)-yl)methyl)-2-(thiazol-2-yl)-1,4-dihydropyrimidine-5-carboxylate] | > 150000 | 15.9
14 | COC(=O)C1=C(CN2CCN3C(=O)N(c4ccc(Oc5ccc(C(=O)NCCCC(=O)N(C)C)cc5)cc4)C[C@@H]3C2)NC(c2nccs2)=N[C@H]1c1ccc(F)cc1Cl [Example 71, (R)-methyl 4-(2-chloro-4-fluorophenyl)-6-(((S)-2-(4-(4-((4-(dimethylamino)-4-oxobutyl)carbamoyl)phenoxy)phenyl)-3-oxohexahydroimidazo[1,5-a]pyrazin-7(1H)-yl)methyl)-2-(thiazol-2-yl)-1,4-dihydropyrimidine-5-carboxylate] | > 150000 | 16.6
15 | COC(=O)C1=C(CN2CCN3C(=O)N(c4ccc(Oc5ccc(C(=O)NC(C)CO)cc5)cc4)C[C@@H]3C2)NC(c2nccs2)=N[C@H]1c1ccc(F)cc1Cl (stereo partly drawn) [Example 72, (4R)-methyl 4-(2-chloro-4-fluorophenyl)-6-(((8aS)-2-(4-(4-((1-hydroxyprop-2-yl)carbamoyl)phenoxy)phenyl)-3-oxohexahydroimidazo[1,5-a]pyrazin-7(1H)-yl)methyl)-2-(thiazol-2-yl)-1,4-dihydropyrimidine-5-carboxylate] | > 150000 | 21.2
16 | COC(=O)C1=C(CN2CCN3C(=O)N(c4ccc(Oc5ccc(C(=O)N6CCO[C@H](CCC(=O)O)C6)cc5)cc4)C[C@@H]3C2)NC(c2nccs2)=N[C@H]1c1ccc(F)cc1Cl [Example 74, 3-((R)-4-(4-(4-(((S)-7-((R)-6-(2-chloro-4-fluorophenyl)-5-(methoxycarbonyl)-2-(thiazol-2-yl)-3,6-dihydropyrimidin-4-yl)methyl)-3-oxohexahydroimidazo[1,5-a]pyrazin-2(3H)-yl)phenoxy)benzoyl)morpholin-2-yl)propanoic acid] | > 150000 | 30.7
17 | COC(=O)C1=C(CN2CCN3C(=O)N(c4ccc(N5CCOC(C(=O)O)C5)cc4)C[C@@H]3C2)NC(c2nccs2)=N[C@H]1c1ccc(F)cc1Cl (stereo partly drawn) [Example 77, 4-(4-((S)-7-(((R)-6-(2-chloro-4-fluorophenyl)-5-(methoxycarbonyl)-2-(thiazol-2-yl)-3,6-dihydropyrimidin-4-yl)methyl)-3-oxohexahydroimidazo[1,5-a]pyrazin-2(3H)-yl)phenyl)morpholine-2-carboxylic acid] | > 150000 | 9.7
